# Where “and” joins values, the source holds several entries; their conditions need not be identical. Identical values can stand only once. Like-named read-outs stand apart in the source and are kept apart here.
# How the values were obtained:
# [1] = tested on: advanced solid tumours; details: prior docetaxel therapy in the same two patients with metastatic breast cancer; patient history; cited from earlier work
# [2] = Pharmacokinetics of everolimus in whole blood (LC-MS, non-compartmental); assay type: in vivo, human; details: for Tmax / Cmax / half-life: whole blood; for Cmax / half-life: mean (s.d.)
# Description: (§1) For everolimus, sampling was carried out predose and 1, 2, 4, 6, 12, 24, 48, 96, and 168 h after administration. Everolimus was measured in whole blood by liquid chromatography–mass spectrometry after liquid extraction, its lower limit of quantification being 0.368 ng ml^−1. […] Pharmacokinetic parameters were derived by standard non-compartmental methods of analysis (WinNonlin Pro 5.0). The measured parameters included the maximum plasma concentration (Cmax), time to reach Cmax (tmax), and the truncated area under the time–concentration curve (AUClast).
# [3] = tested on: advanced solid tumours; assay: Anti-tumour activity, Response Evaluation Criteria in Solid Tumors; assay type: in vivo, human
# Description: (§2) Patients receiving at least one dose of study drug medications were evaluated weekly for safety using the National Cancer Institute Common Toxicity Criteria version 2.0. Safety assessments consisted of clinical examinations and scheduled laboratory evaluations and electrocardiograms. […] Treatment with the combination was discontinued on any grade 4 toxicity or failure to return to grade ⩽1 within 2 weeks. […] The concomitant use of any drugs that may interfere with cytochrome CYP450-3A was discouraged. […] Anti-tumour activity was assessed using Response Evaluation Criteria in Solid Tumors.
# [4] = tested on: patients with advanced solid tumours; details: human, in vivo
# Description: as §2
# (§3) Dose-limiting toxicity was defined as occurring during the first 28-day cycle, suspected of being drug related, and included any grade 4 toxicity, any grade 3 non-haematological toxicity despite preventive therapy, or grade ⩾2 neutropenia, or thrombocytopenia failing to revert to grade ⩽1 within 2 weeks. Three patients were entered per dose level, with expansion to six patients if one of three patients experienced DLT. If DLT occurred in none of three or no more than one of six patients in dose level 1, doses would be escalated to dose level 2. Dose-limiting toxicity in more than one of three or more than two of six patients would be considered unacceptable.
# [5] = as a single agent; no reference given; cited from earlier work
# [6] = tested on: S6K1; set-up: method as in O'Donnell et al, 2008; details: ref O'Donnell et al, 2008, cited from earlier work
# [7] = tested on: S6K1; set-up: method as in Tabernero et al, 2008; details: weekly dosing (20, 50, or 70 mg), immunohistochemistry; ref Tabernero et al, 2008; cited from earlier work
# [8] = tested on: patients with advanced cancers; set-up: method as in Tabernero et al, 2008; details: single-agent everolimus 70 mg weekly; ref Tabernero et al, 2008; cited from earlier work
# [9] = tested on: tumour models; set-up: method as in O'Reilly et al, 2003; details: schedule effect, ref O'Reilly et al, 2003; cited from earlier work
# [10] = tested on: trastuzumab-resistant breast cancer; set-up: method as in André et al, 2008; details: everolimus and paclitaxel with trastuzumab; population pre-treated with trastuzumab and taxanes; preliminary; ref André et al, 2008; cited from earlier work
# [11] = tested on: patients with advanced solid tumours; assay: Safety and dose-limiting toxicity, NCI Common Toxicity Criteria version 2.0; details: everolimus + paclitaxel, 16 patients
# Description: as §2, §3
# [12] = clinical; details: human, in vivo, iv
# Description: as §1
# [13] = as a single agent; cited from earlier work
# [14] = tested on: cervical cancer; set-up: method as in Mori et al, 2007; details: weekly paclitaxel, cervical cancer patients; ref Mori et al, 2007; cited from earlier work
# [15] = human, po, 15 mg, everolimus 15 mg oral alone, dose level 1, n=3
# [16] = human, po, 30 mg, everolimus 30 mg oral alone, dose level 2, n=4
# [17] = human, po, everolimus 15 mg oral with paclitaxel 80 mg m^−2, dose level 1, n=3
# [18] = human, po, everolimus 30 mg oral with paclitaxel 80 mg m^−2, dose level 2, n=7
# [19] = everolimus + paclitaxel, 16 patients
smiles,measurement,setting,value
CC(=O)O[C@@]12CO[C@@H]1C[C@H](O)[C@@]1(C)C(=O)[C@H](O)C3=C(C)[C@@H](OC(=O)[C@H](O)[C@@H](NC(=O)OC(C)(C)C)c4ccccc4)C[C@@](O)([C@@H](OC(=O)c4ccccc4)[C@H]21)C3(C)C [docetaxel],Duration of tumour stabilisation previously recorded,[1],3.7 months and 3.5 months
"CO[C@H]1C[C@@H]2CC[C@@H](C)[C@@](O)(O2)C(=O)C(=O)N2CCCC[C@H]2C(=O)O[C@H]([C@H](C)C[C@@H]2CC[C@@H](OCCO)[C@H](OC)C2)CC(=O)[C@H](C)/C=C(\C)[C@@H](O)[C@@H](OC)C(=O)[C@H](C)C[C@H](C)/C=C/C=C/C=C/1C [everolimus, Everolimus]",Tmax,"[2]; everolimus 30 mg oral with paclitaxel 80 mg m^−2, dose level 2, n=7, median (range)",1.0 (1–4) h
same,"Change in tmax, Cmax and AUClast when given in combination",[2]; everolimus with paclitaxel vs alone,no meaningful change
same,Cmax,[2]; [15],75.2 ± 37.4 ng/mL
same,half-life,[2]; [15],29.5 ± 8.5 h
same,Cmax,[2]; [16],93 ± 28.6 ng/mL
same,half-life,[2]; [16],26.9 ± 7.1 h
same,Cmax,[2]; [17],57.9 ± 35.8 ng/mL
same,half-life,[2]; [17],24.6 ± 3.6 h
same,Cmax,[2]; [18],94.5 ± 60.1 ng/mL
same,half-life,[2]; [18],27.4 ± 5.6 h
same,Tmax,"[2]; human, po, read-out: tmax",1 h
same,Tmax,"[2]; human, everolimus 15 mg oral alone, dose level 1, n=3, median (range), read-out: tmax",1 h
same,Tmax,"[2]; human, everolimus 30 mg oral alone, dose level 2, n=4, median (range), read-out: tmax",1 h
same,Change of everolimus AUC with concomitant fluconazole,"[2]; one patient at dose level 2 (everolimus 30 mg), concomitant medication with fluconazole",threefold increase
same,Objective response,[3]; [19],No objective response
same,"Tumour stabilisation reported, patients",[3]; [19],11 patients
same,"Sustained tumour stabilisation for more than 4 months, patients","[3]; everolimus + paclitaxel, breast (two), ovarian (two), thyroid carcinoma (one), liposarcoma (one)",six
same,Duration of tumour stabilisation,[3]; two patients with metastatic breast cancer at dose level 2 (everolimus 30 mg + paclitaxel),> 6 months
same,"Dose interruptions in any cycle, n (%)",[4],8 (50.0)
same,Terminal half-life,[5],about 30 h
same,Duration of sustained inhibition of S6K1 activity in peripheral blood mononuclear cells,[6]; single-agent everolimus at doses ⩾20 mg per week,at least 7 days
same,Dose with consistent inhibition of S6K1 activity in peripheral blood mononuclear cells,[6]; single-agent everolimus,≥ 20 mg per week
same,Dose with confirmed inhibition of S6K1 in paired tumour tissue biopsies,[7],≥ 20 mg
same,Dose-limiting toxicities observed,[8],"grade 3 stomatitis, neutropenia, and hyperglycaemia"
same,Effect of in vivo combination with paclitaxel,[9],additive and synergistic effects
same,Rate of response,[10],46%
same,Toxicity-related death,[11],No toxicity-related death
CC(=O)O[C@H]1C(=O)[C@@]2(C)[C@H]([C@H](OC(=O)c3ccccc3)[C@]3(O)C[C@H](OC(=O)[C@H](O)[C@@H](NC(=O)c4ccccc4)c4ccccc4)C(C)=C1C3(C)C)[C@]1(OC(C)=O)CO[C@@H]1C[C@@H]2O [paclitaxel],Tmax,[12],4.8 min
same,Terminal half-life,[13],about 10 h
same,Time apoptosis could be induced after treatment,[14],up to 1 week
same,Time paclitaxel could be detected in tissue,[14],up to 6 days
